Columns and labels:
Assay in all cases: Test E pre-/postemergence herbicide test
Italian ryegrass = type: in vivo, Lolium multiflorum
Source text: (§1) Seeds of plant species selected from bipinnate beggarticks (Bidens bipinnata L.), hairy beggarticks (Bidens radiata Thuill.), bermudagrass (Cynodon dactylon (L.) Pers.), Surinam grass (Urochloa decumbens (Staph) R. D. Webster, previously named Brachiaria decumbens Stapf), large crabgrass (Digitaria sanguinalis (L.) Scop.), green foxtail (Setaria viridis (L.) P. Beauv.), goosegrass (Eleusine indica (L.) Gaertn.), johnsongrass (Sorghum halepense (L.) Pers.), kochia (Kochia scoparia (L.) Schrad.), pitted morningglory (Ipomoea lacunosa L.), purple nutsedge (Cyperus rotundus L.), common ragweed (Ambrosia elatior L.), mustard (Brassica nigra (L.) W. D. J. Koch), guineagrass (Panicum maximum Jacq.), dallisgrass (Paspalum dilatatum Poir.), barnyardgrass (Echinochloa crus-galli (L). P. Beauv.), southern sandbur (Cenchrus echinatus L.), common sowthistle (Sonchus oleraceous L.), prickly sida (Sida spinosa L.), Italian ryegrass (Lolium multiflorum Lam.), common purslane (Portulaca oleracea L.), broadleaf signalgrass (Brachiaria platyphylla (Griseb.) Nash), common groundsel (Senecio vulgaris L.), common chickweed (Stellaria media (L.) Vill/Cyr.), tropical spiderwort (Commelina benghalensis L.), annual bluegrass (Poa annua L.), downy bromegrass (Bromus tectorum L.), itchgrass (Rottboellia cochinchinensis (L.) L.f.), quackgrass (Elytrigia repens (L.) Nevski), Canada horseweed (Erigeron Canadensis L.), field bindweed (Convolvulus arvensis L.), spotted spurge (Euphorbia maculata L.), common mallow (Malva sylvestris (=s silvestris) L.), and Russian thistle (Salsola kali L. ssp. Ruthenica (Iljin) Soo) were planted and treated preemergence with test chemicals formulated in a non-phytotoxic solvent mixture which included a surfactant.
(§2) At the same time, plants selected from these weed species were treated with postemergence applications of some of the test chemicals formulated in the same manner. Plants ranged in height from 2 to 18 cm (1- to 4-leaf stage) for postemergence treatments. Treated plants and controls were maintained in a greenhouse for 12 to 14 days, after which time all species were compared to controls and visually evaluated. Plant response ratings, summarized in Table E, are based on a scale of 0 to 100 where 0 is no effect and 100 is complete control. A dash (-) response means no test result.

southern sandbur = type: in vivo, Cenchrus echinatus
Source text: as §1, §2

green foxtail = type: in vivo, Setaria viridis
Source text: as §1, §2

mustard = type: in vivo, Brassica nigra
Source text: as §1, §2

barnyardgrass = type: in vivo, Echinochloa crus-galli
Source text: as §1, §2

guineagrass = type: in vivo, Panicum maximum
Source text: as §1, §2

Surinam grass = type: in vivo, Urochloa decumbens
Source text: as §1, §2

broadleaf signalgrass = type: in vivo, Brachiaria platyphylla
Source text: as §1, §2

bermudagrass = type: in vivo, Cynodon dactylon
Source text: as §1, §2

[1] = Preemergence, 125 g ai/ha, scale 0 to 100
[2] = Preemergence, 250 g ai/ha, scale 0 (no effect) to 100 (complete control)
[3] = Preemergence, 375 g ai/ha, scale 0 (no effect) to 100 (complete control)
[4] = Preemergence, 500 g ai/ha, scale 0 (no effect) to 100 (complete control)
[5] = Postemergence, 500 g ai/ha, scale 0 to 100
[6] = Postemergence, 250 g ai/ha, scale 0 to 100
[7] = postemergence, 125 g ai/ha, scale 0 to 100
[8] = postemergence, 62 g ai/ha, scale 0 to 100

CCc1nn(C(C)(C)C)cc1C(=O)Nc1cc(C(=O)N(C)C)ccn1 [Compound 293]
Plant response rating, Ryegrass, Italian (Italian ryegrass; [1]): 60 | Plant response rating, Ryegrass, Italian (Italian ryegrass; [2]): 95 | Plant response rating, Ryegrass, Italian (Italian ryegrass; [3]): 95 | Plant response rating, Ryegrass, Italian (Italian ryegrass; [4]): 100 | Plant response rating, Sandbur (southern sandbur; [1]): 10 | Plant response rating, Sandbur (southern sandbur; [2]): 100 | Plant response rating, Sandbur (southern sandbur; [3]): 100 | Plant response rating, Sandbur (southern sandbur; [4]): 100 | Plant response rating, Foxtail, Green (green foxtail; [1]): 50 | Plant response rating, Foxtail, Green (green foxtail; [2]): 95 | Plant response rating, Foxtail, Green (green foxtail; [3]): 95 | Plant response rating, Foxtail, Green (green foxtail; [4]): 100 | Plant response rating, Black Mustard (mustard; [1]): 95 | Plant response rating, Black Mustard (mustard; [2]): 100 | Plant response rating, Black Mustard (mustard; [3]): 100 | Plant response rating, Black Mustard (mustard; [4]): 100 | Plant response rating, Barnyardgrass (barnyardgrass; [1]): 60 | Plant response rating, Barnyardgrass (barnyardgrass; [2]): 100 | Plant response rating, Barnyardgrass (barnyardgrass; [3]): 100 | Plant response rating, Barnyardgrass (barnyardgrass; [4]): 100 | Plant response rating, Guineagrass (guineagrass; [1]): 100 | Plant response rating, Guineagrass (guineagrass; [2]): 100 | Plant response rating, Guineagrass (guineagrass; [3]): 100 | Plant response rating, Guineagrass (guineagrass; [4]): 100 | Plant response rating, Surinam Grass (Surinam grass; [1]): 80 | Plant response rating, Surinam Grass (Surinam grass; [3]): 100 | Plant response rating, Surinam Grass (Surinam grass; [4]): 100 | Plant response rating, Signalgrass (broadleaf signalgrass; [1]): 50 | Plant response rating, Signalgrass (broadleaf signalgrass; [2]): 95 | Plant response rating, Signalgrass (broadleaf signalgrass; [3]): 95 | Plant response rating, Signalgrass (broadleaf signalgrass; [4]): 100 | Plant response rating, Bermudagrass (bermudagrass; [1]): 90 | Plant response rating, Bermudagrass (bermudagrass; [2]): 95 | Plant response rating, Bermudagrass (bermudagrass; [3]): 95 | Plant response rating, Bermudagrass (bermudagrass; [4]): 95

CCn1nc(C(C)(C)C)cc1C(=O)Nc1cc(C(=S)N(C)C)ccc1F [Compound 294]
Plant response rating, Ryegrass, Italian (Italian ryegrass; [5]): 95 | Plant response rating, Ryegrass, Italian (Italian ryegrass; [6]): 95 | Plant response rating, Ryegrass, Italian (Italian ryegrass; [1]): 80 | Plant response rating, Ryegrass, Italian (Italian ryegrass; [2]): 100 | Plant response rating, Ryegrass, Italian (Italian ryegrass; [3]): 100 | Plant response rating, Ryegrass, Italian (Italian ryegrass; [4]): 100 | Plant response rating, Ryegrass, Italian (Italian ryegrass; [7]): 80 | Plant response rating, Ryegrass, Italian (Italian ryegrass; [8]): 70 | Plant response rating, Sandbur (southern sandbur; [5]): 80 | Plant response rating, Sandbur (southern sandbur; [6]): 75 | Plant response rating, Sandbur (southern sandbur; [1]): 70 | Plant response rating, Sandbur (southern sandbur; [2]): 80 | Plant response rating, Sandbur (southern sandbur; [3]): 95 | Plant response rating, Sandbur (southern sandbur; [4]): 100 | Plant response rating, Sandbur (southern sandbur; [7]): 50 | Plant response rating, Sandbur (southern sandbur; [8]): 10 | Plant response rating, Foxtail, Green (green foxtail; [5]): 85 | Plant response rating, Foxtail, Green (green foxtail; [6]): 80 | Plant response rating, Foxtail, Green (green foxtail; [1]): 80 | Plant response rating, Foxtail, Green (green foxtail; [2]): 100 | Plant response rating, Foxtail, Green (green foxtail; [3]): 100 | Plant response rating, Foxtail, Green (green foxtail; [4]): 100 | Plant response rating, Foxtail, Green (green foxtail; [7]): 60 | Plant response rating, Foxtail, Green (green foxtail; [8]): 40 | Plant response rating, Black Mustard (mustard; [5]): 95 | Plant response rating, Black Mustard (mustard; [6]): 90 | Plant response rating, Black Mustard (mustard; [1]): 100 | Plant response rating, Black Mustard (mustard; [2]): 100 | Plant response rating, Black Mustard (mustard; [3]): 100 | Plant response rating, Black Mustard (mustard; [4]): 100 | Plant response rating, Black Mustard (mustard; [7]): 90 | Plant response rating, Black Mustard (mustard; [8]): 70 | Plant response rating, Barnyardgrass (barnyardgrass; [5]): 80 | Plant response rating, Barnyardgrass (barnyardgrass; [6]): 75 | Plant response rating, Barnyardgrass (barnyardgrass; [1]): 95 | Plant response rating, Barnyardgrass (barnyardgrass; [2]): 95 | Plant response rating, Barnyardgrass (barnyardgrass; [3]): 100 | Plant response rating, Barnyardgrass (barnyardgrass; [4]): 100 | Plant response rating, Barnyardgrass (barnyardgrass; [7]): 60 | Plant response rating, Barnyardgrass (barnyardgrass; [8]): 40 | Plant response rating, Guineagrass (guineagrass; [5]): 85 | Plant response rating, Guineagrass (guineagrass; [6]): 80 | Plant response rating, Guineagrass (guineagrass; [1]): 90 | Plant response rating, Guineagrass (guineagrass; [2]): 100 | Plant response rating, Guineagrass (guineagrass; [3]): 100 | Plant response rating, Guineagrass (guineagrass; [4]): 100 | Plant response rating, Guineagrass (guineagrass; [7]): 70 | Plant response rating, Guineagrass (guineagrass; [8]): 50 | Plant response rating, Surinam Grass (Surinam grass; [5]): 85 | Plant response rating, Surinam Grass (Surinam grass; [6]): 80 | Plant response rating, Surinam Grass (Surinam grass; [1]): 95 | Plant response rating, Surinam Grass (Surinam grass; [3]): 100 | Plant response rating, Surinam Grass (Surinam grass; [4]): 100 | Plant response rating, Surinam Grass (Surinam grass; [7]): 70 | Plant response rating, Surinam Grass (Surinam grass; [8]): 30 | Plant response rating, Signalgrass (broadleaf signalgrass; [5]): 70 | Plant response rating, Signalgrass (broadleaf signalgrass; [6]): 50 | Plant response rating, Signalgrass (broadleaf signalgrass; [1]): 50 | Plant response rating, Signalgrass (broadleaf signalgrass; [2]): 70 | Plant response rating, Signalgrass (broadleaf signalgrass; [3]): 80 | Plant response rating, Signalgrass (broadleaf signalgrass; [4]): 80 | Plant response rating, Signalgrass (broadleaf signalgrass; [7]): 30 | Plant response rating, Signalgrass (broadleaf signalgrass; [8]): 30 | Plant response rating, Bermudagrass (bermudagrass; [5]): 75 | Plant response rating, Bermudagrass (bermudagrass; [6]): 75 | Plant response rating, Bermudagrass (bermudagrass; [1]): 90 | Plant response rating, Bermudagrass (bermudagrass; [2]): 95 | Plant response rating, Bermudagrass (bermudagrass; [3]): 95 | Plant response rating, Bermudagrass (bermudagrass; [4]): 95 | Plant response rating, Bermudagrass (bermudagrass; [7]): 50 | Plant response rating, Bermudagrass (bermudagrass; [8]): 20
